Assay results published in US20180000085A1, “USE OF PICOLINAMIDE COMPOUNDS WITH FUNGICIDAL ACTIVITY” (DOW AGROSCIENCES LLC, priority 2014, published 2018).

Columns and labels:
Assay type in all cases: in vivo
Zymoseptoria tritici = assay: Leaf blotch of wheat (SEPTTR) disease control on wheat seedlings; conditions: low volume application, 125.1 g/H; for SEPTTR 1DP, LV activity at 125.1 g/H (% Control rating): 1 Day Protectant; for SEPTTR 3DC, LV activity at 125.1 g/H (% Control rating): 3 Day Curative
Puccinia triticina = assay: Wheat brown rust (PUCCRT) disease control on wheat seedlings; conditions: low volume application, 125.1 g/H; for PUCCRT 1DP, LV activity at 125.1 g/H (% Control rating): 1 Day Protectant; for PUCCRT 3DC, LV activity at 125.1 g/H (% Control rating): 3 Day Curative
Phakopsora pachyrhizi = assay: Asian soybean rust (PHAKPA) disease control; conditions: 25 ppm; for PHAKPA disease control, 1DP: 1 Day Protectant; for PHAKPA disease control, 3DC: 3 Day Curative

Compound	SEPTTR 1DP, LV activity at 125.1 g/H (% Control rating) (Zymoseptoria tritici)	SEPTTR 3DC, LV activity at 125.1 g/H (% Control rating) (Zymoseptoria tritici)	PUCCRT 1DP, LV activity at 125.1 g/H (% Control rating) (Puccinia triticina)	PUCCRT 3DC, LV activity at 125.1 g/H (% Control rating) (Puccinia triticina)	PHAKPA disease control, 1DP (Phakopsora pachyrhizi)	PHAKPA disease control, 3DC (Phakopsora pachyrhizi)
CCC(CC)[C@@H](OCC1CC1)[C@H](C)OC(=O)[C@H](C)NC(=O)c1nccc(OC)c1OCOC(C)=O [Cmpd 553]	B (≤ 80)	A (> 80)	A (> 80)	A (> 80)	A (> 80)	A (> 80)
CCC(CC)[C@@H](OCC(C)C)[C@H](C)OC(=O)[C@H](C)NC(=O)c1nccc(OC)c1OCOC(C)=O [Cmpd 554]	B (≤ 80)	A (> 80)	A (> 80)	A (> 80)	A (> 80)	B (≤ 80)
COc1ccnc(C(=O)N[C@@H](C)C(=O)O[C@@H](C)[C@H](Oc2cccc(Cl)c2)C(C)C)c1OCOC(C)=O [Cmpd 561]	A (> 80)	A (> 80)	A (> 80)	A (> 80)	A (> 80)	A (> 80)
COc1ccnc(C(=O)N[C@@H](C)C(=O)O[C@@H](C)[C@H](Oc2ccc(Cl)cc2)C(C)C)c1OCOC(C)=O [Cmpd 563]	B (≤ 80)	A (> 80)	A (> 80)	A (> 80)	A (> 80)	B (≤ 80)
COc1ccnc(C(=O)N[C@@H](C)C(=O)O[C@@H](C)[C@H](Oc2ccc(Cl)cc2)C(C)C)c1OC(C)=O [Cmpd 568]	B (≤ 80)	A (> 80)	A (> 80)	A (> 80)	A (> 80)	B (≤ 80)
COc1ccnc(C(=O)N[C@H](C(=O)O[C@@H](C)[C@H](Oc2cccc(Cl)c2)C(C)C)C(C)C)c1OC(C)=O [Cmpd 569]	B (≤ 80)	A (> 80)	A (> 80)	A (> 80)	A (> 80)	B (≤ 80)
COc1ccnc(C(=O)N[C@@H](C)C(=O)O[C@@H](C)[C@H](Oc2cccc(F)c2)c2ccccc2)c1OC(C)=O [Cmpd 575]	A (> 80)	A (> 80)	A (> 80)	A (> 80)	A (> 80)	B (≤ 80)
CCC(CC)[C@@H](Oc1ccc(Cl)cc1)[C@H](C)OC(=O)[C@H](C)NC(=O)c1nccc(OC)c1OCOC(C)=O [Cmpd 589]	A (> 80)	A (> 80)	A (> 80)	A (> 80)	A (> 80)	B (≤ 80)
CCC(CC)[C@@H](Oc1cc(F)cc(Cl)c1)[C@H](C)OC(=O)[C@H](C)NC(=O)c1nccc(OC)c1OCOC(C)=O [Cmpd 592]	A (> 80)	A (> 80)	A (> 80)	A (> 80)	A (> 80)	A (> 80)
CCC(CC)[C@@H](Oc1ccccc1Cl)[C@H](C)OC(=O)[C@H](C)NC(=O)c1nccc(OC)c1OCOC(C)=O [Cmpd 593]	A (> 80)	A (> 80)	A (> 80)	A (> 80)	A (> 80)	B (≤ 80)
CCC(CC)[C@@H](Oc1cccc(F)c1)[C@H](C)OC(=O)[C@H](C)NC(=O)c1nccc(OC)c1OC(C)=O [Cmpd 597]	A (> 80)	A (> 80)	A (> 80)	A (> 80)	A (> 80)	B (≤ 80)
CCC(CC)[C@@H](Oc1ccc(F)cc1)[C@H](C)OC(=O)[C@H](C)NC(=O)c1nccc(OC)c1OC(C)=O [Cmpd 598]	A (> 80)	A (> 80)	A (> 80)	A (> 80)	A (> 80)	B (≤ 80)
CCC(CC)[C@@H](Oc1cccc(Cl)c1)[C@H](C)OC(=O)[C@H](C)NC(=O)c1nccc(OC)c1OC(C)=O [Cmpd 599]	A (> 80)	A (> 80)	B (≤ 80)	A (> 80)	A (> 80)	A (> 80)
CCC(CC)[C@@H](Oc1ccc(Cl)cc1)[C@H](C)OC(=O)[C@H](C)NC(=O)c1nccc(OC)c1OC(C)=O [Cmpd 600]	A (> 80)	A (> 80)	A (> 80)	A (> 80)	B (≤ 80)	B (≤ 80)
CCC(CC)[C@@H](Oc1ccccc1Cl)[C@H](C)OC(=O)[C@H](C)NC(=O)c1nccc(OC)c1OC(C)=O [Cmpd 604]	B (≤ 80)	A (> 80)	A (> 80)	A (> 80)	B (≤ 80)	B (≤ 80)
COc1ccnc(C(=O)N[C@@H](C)C(=O)O[C@@H](C)[C@H](Oc2cccc(F)c2)C(C)C)c1OCOC(C)=O [Cmpd 614]	B (≤ 80)	A (> 80)	A (> 80)	A (> 80)	A (> 80)	A (> 80)
COc1ccnc(C(=O)N[C@@H](C)C(=O)O[C@@H](C)[C@H](Oc2ccc(F)cc2)C(C)C)c1OCOC(C)=O [Cmpd 615]	A (> 80)	A (> 80)	A (> 80)	A (> 80)	A (> 80)	B (≤ 80)
